In patent US20240391926A1, “SPIROINDOLINONE COMPOUNDS AS Kv1.3 POTASSIUM SHAKER CHANNEL BLOCKERS” (D.E. Shaw Research, LLC, priority 2021, published 2024) one finds IC50 data, which are given here for 33 compounds.

Some results are limits rather than exact numbers.

The term IC50 denotes the midpoint of a concentration-inhibition curve. A low value points to higher potency.

T1 sequence (P22001 whole entry): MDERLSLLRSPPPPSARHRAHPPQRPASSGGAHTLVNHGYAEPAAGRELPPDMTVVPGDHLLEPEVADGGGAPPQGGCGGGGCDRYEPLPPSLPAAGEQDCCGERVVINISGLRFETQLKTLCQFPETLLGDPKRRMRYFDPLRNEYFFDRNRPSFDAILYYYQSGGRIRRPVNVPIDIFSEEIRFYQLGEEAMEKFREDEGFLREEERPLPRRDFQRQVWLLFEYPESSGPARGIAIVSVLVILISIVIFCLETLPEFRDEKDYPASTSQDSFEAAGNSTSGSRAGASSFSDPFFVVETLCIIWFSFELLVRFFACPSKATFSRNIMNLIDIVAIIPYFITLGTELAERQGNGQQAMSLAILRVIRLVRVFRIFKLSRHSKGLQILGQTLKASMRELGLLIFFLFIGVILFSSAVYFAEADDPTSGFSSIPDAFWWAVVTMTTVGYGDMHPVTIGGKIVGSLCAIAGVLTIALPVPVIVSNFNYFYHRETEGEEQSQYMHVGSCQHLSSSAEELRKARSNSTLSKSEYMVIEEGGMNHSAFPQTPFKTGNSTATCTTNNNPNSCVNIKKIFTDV

The test addresses T1, Kv1.3 potassium channel (Homo sapiens, UniProt P22001).
T1 construct: expressed in transfected cells
The test is described as follows: Kv1.3 potassium channel blocker activity, automated whole-cell patch clamp (Patchliner) in CHO-K1 cells stably expressing Kv1.3. It counts as cell-based. To be noted: 30 nM-100 μM. As to the method: This assay is used to evaluate the disclosed compounds' activities as Kv1.3 potassium channel blockers.
CHO-K1 cells stably expressing Kv1.3 were grown in DMEM containing 10% heat-inactivated FBS, 1 mM sodium pyruvate, 2 mM L-glutamine, and G418 (500 μg/ml). Cells were grown in culture flasks at 37° C. in a 5% CO2-humidified incubator.
The cells were bathed in an extracellular solution containing 140 mM NaCl, 4 mM KCl, 2 mM CaCl2), 1 mM MgCl2, 5 mM glucose, 10 mM HEPES; pH adjusted to 7.4 with NaOH; 295-305 mOsm. The internal solution contained 50 mM KCl, 10 mM NaCl, 60 mM KF, 20 mM EGTA, 10 mM HEPES; pH adjusted to 7.2 with KOH; 285 mOsm. All compounds were dissolved in DMSO at 30 mM. Compound stock solutions were freshly diluted with external solution to concentrations of 30 nM, 100 nM, 300 nM, 1 μM, 3 μM, 10 μM, 30 μM and 100 μM. The highest content of DMSO (0.3%) was present in 100 μM.
The currents were evoked by applying 100 ms depolarizing pulses from −90 mV (holding potential) to +40 mV were applied with 0.1 Hz frequency. Control (compound-free) and compound pulse trains for each compound concentration applied contained 20 pulses. 10-second breaks were used between pulse trains (see Table A below).
Whole-cell current recordings and compound application were enabled by means of an automated patch clamp platform Patchliner (Nanion Technologies GmbH). EPC 10 patch clamp amplifier (HEKA Elektronik Dr. Schulze GmbH) along with Patchmaster software (HEKA Elektronik Dr. Schulze GmbH) was used for data acquisition. Data were sampled at 10 kHz without filtering. Passive leak currents were subtracted online using a P/4 procedure (HEKA Elektronik Dr. Schulze GmbH). Increasing compound concentrations were applied consecutively to the same cell without washouts in between. Total compound incubation time before the next pulse train was not longer than 10 seconds. Peak current inhibition was observed during compound equilibration.
AUC and peak values were obtained with Patchmaster (HEKA Elektronik Dr. Schulze GmbH). To determine IC50, the last single pulse in the pulse train corresponding to a given compound concentration was used. Obtained AUC and peak values in the presence of compound were normalized to control values in the absence of compound. Using Origin (OridinLab), IC50 was derived from data fit to Hill equation: Icompound/Icontrol=(100−A)/(1+([compound]/IC50)nH)+A, where IC50 value is the concentration at which current inhibition is half-maximal, [compound] is the applied compound concentration, A is the fraction of current that is not blocked and nH is the Hill coefficient.
For orientation: In patch-clamp work, channel activity is measured electrically.
The compound `O=C(c1cc[nH]c1)N1CC[C@]2(C1)C(=O)Nc1cc(Cl)c(Cl)cc12` [Compound 135, (S)-5,6-dichloro-1′-(1H-pyrrole-3-carbonyl)spiro[indoline-3,3′-pyrrolidin]-2-one] came in with an IC50 of less than 1 µM.
With `C[C@H]1C[C@@]2(CN1C(=O)CO)C(=O)Nc1cc(Cl)c(Cl)cc12` (single isomer, unassigned; isomer 4) [Compound 126, 5,6-dichloro-1′-(2-hydroxyacetyl)-5′-methyl-1H-spiro[indole-3,3′-pyrrolidin]-2-one isomer 4], the IC50 is less than 10 µM.
For the compound `N[C@H](CO)C(=O)N1CC[C@]2(C1)C(=O)Nc1cc(Cl)c(Cl)cc12` [Compound 43, (S)-1′-(D-seryl)-5,6-dichlorospiro[indoline-3,3′-pyrrolidin]-2-one], the IC50 is less than 1 µM.
On to `C[C@H]1CN(C(=O)CO)CC12C(=O)Nc1cc(Cl)c(Cl)cc12` (single isomer, unassigned; diastereoisomer 2) [Compound 131, 5,6-dichloro-1′-(2-hydroxyacetyl)-4′-methylspiro[indoline-3,3′-pyrrolidin]-2-one diastereoisomer 2], for which the half-inhibitory concentration (IC50) was less than 1 µM.
As to `O=C([C@@H]1CC[C@@](O)(CO)C1)N1CC[C@]2(C1)C(=O)Nc1cc(Cl)c(Cl)cc12` (single isomer, unassigned; isomer 2) [Compound 96], the half-inhibitory concentration (IC50) is less than 3 µM.
Compound `O=C(c1cc(CO)[nH]n1)N1CC[C@]2(C1)C(=O)Nc1cc(Cl)c(Cl)cc12` [Compound 79, (S)-5,6-dichloro-1′-(5-(hydroxymethyl)-1H-pyrazole-3-carbonyl)spiro[indoline-3,3′-pyrrolidin]-2-one] showed an IC50 of less than 3 µM.
`O=C(C1CC1O)N1CC[C@]2(C1)C(=O)Nc1cc(Cl)c(Cl)cc12` (stereo partly drawn) [Compound 158, (3S)-5,6-dichloro-1′-(2-hydroxycyclopropane-1-carbonyl)spiro[indoline-3,3′-pyrrolidin]-2-one] registered a half-inhibitory concentration (IC50) of less than 3 µM.
`Nc1cnc(N2CC[C@]3(C2)C(=O)Nc2cc(Cl)c(Cl)cc23)cn1` [Compound 144, (3S)-1′-(5-aminopyrazin-2-yl)-5,6-dichloro-1H-spiro[indole-3,3′-pyrrolidin]-2-one] registered an IC50 of less than 1 µM.
`O=C(N1CC[C@]2(C1)C(=O)Nc1cc(Cl)c(Cl)cc12)C1(F)CCNCC1` [Compound 34, (S)-5,6-dichloro-1′-(4-fluoropiperidine-4-carbonyl)spiro[indoline-3,3′-pyrrolidin]-2-one] showed an IC50 of less than 1 µM.
`CC(C)[C@@H](N)C(=O)N1CC[C@]2(C1)C(=O)Nc1cc(Cl)c(Cl)cc12` [Compound 46, (S)-1′-(D-valyl)-5,6-dichlorospiro[indoline-3,3′-pyrrolidin]-2-one] showed an IC50 of less than 3 µM.
`O=C([C@H]1CNC[C@@H]1O)N1CC[C@]2(C1)C(=O)Nc1cc(Cl)c(Cl)cc12` (single isomer, unassigned) [Compound 4] showed a 50% inhibitory concentration (IC50) of less than 1 µM.
Consider `O=C(Cc1cc[nH]n1)N1CC[C@]2(C1)C(=O)Nc1cc(Cl)c(Cl)cc12` [Compound 73, (S)-1′-(2-(1H-pyrazol-3-yl)acetyl)-5,6-dichlorospiro[indoline-3,3′-pyrrolidin]-2-one], for which the IC50 was less than 3 µM.
The result for `O=C1Nc2cc(Cl)c(Cl)cc2[C@]12CCN(c1ccn[nH]1)C2` (single isomer, unassigned) [Compound 153] reads less than 3 µM; that for `O=C([C@H]1CC[C@@H](O)C1)N1CC[C@]2(C1)C(=O)Nc1cc(Cl)c(Cl)cc12` (single isomer, unassigned; isomer 3) [Compound 65], less than 3 µM.
On to `Cn1ccc(C(=O)N2CC[C@]3(C2)C(=O)Nc2cc(Cl)c(Cl)cc23)cc1=O` [Compound 82, (S)-5,6-dichloro-1′-(1-methyl-2-oxo-1,2-dihydropyridine-4-carbonyl)spiro[indoline-3,3′-pyrrolidin]-2-one], for which the IC50 is less than 3 µM.
The compound `O=C([C@@H]1CC[C@H](O)C1)N1CC[C@]2(C1)C(=O)Nc1cc(Cl)c(Cl)cc12` (single isomer, unassigned; isomer 4) [Compound 66] yielded an IC50 of less than 3 µM.
The compound `O=C(N1CC[C@]2(C1)C(=O)Nc1cc(Cl)c(Cl)cc12)C1(O)CC1` [Compound 85, (S)-5,6-dichloro-1′-(1-hydroxycyclopropane-1-carbonyl)spiro[indoline-3,3′-pyrrolidin]-2-one] had an IC50 of less than 10 µM.
As for `O=C(c1cn[nH]c1CO)N1CC[C@]2(C1)C(=O)Nc1cc(Cl)c(Cl)cc12` [Compound 80, (S)-5,6-dichloro-1′-(5-(hydroxymethyl)-1H-pyrazole-4-carbonyl)spiro[indoline-3,3′-pyrrolidin]-2-one], the figure is less than 1 µM; as for `O=C([C@@H]1CC[C@H](O)[C@@H](O)C1)N1CC[C@]2(C1)C(=O)Nc1cc(Cl)c(Cl)cc12` (single isomer, unassigned; isomer 1) [Compound 103], less than 1 µM.
For `O=C([C@H]1CCCO1)N1CC[C@]2(C1)C(=O)Nc1cc(Cl)c(Cl)cc12` [Compound 20, (S)-5,6-dichloro-1′-((R)-tetrahydrofuran-2-carbonyl)spiro[indoline-3,3′-pyrrolidin]-2-one], the 50% inhibitory concentration (IC50) is less than 10 µM.
The result for `Cn1nc(C(=O)N2CC[C@]3(C2)C(=O)Nc2cc(Cl)c(Cl)cc23)cc1N` [Compound 41, (S)-1′-(5-amino-1-methyl-1H-pyrazole-3-carbonyl)-5,6-dichlorospiro[indoline-3,3′-pyrrolidin]-2-one] reads less than 10 µM.
As for `COC[C@H]1C[C@@H](C(=O)N2CC[C@]3(C2)C(=O)Nc2cc(Cl)c(Cl)cc23)CN1` [Compound 111, (S)-5,6-dichloro-1′-((3R,5R)-5-(methoxymethyl)pyrrolidine-3-carbonyl)spiro[indoline-3,3′-pyrrolidin]-2-one], the figure is less than 1 µM; as for `O=C1CC(C(=O)N2CC[C@]3(C2)C(=O)Nc2cc(Cl)c(Cl)cc23)CN1` (single isomer, unassigned; isomer 2) [Compound 75], less than 3 µM; as for `CN1CC(C(=O)N2CC[C@]3(C2)C(=O)Nc2cc(Cl)c(Cl)cc23)CC1=O` (stereo partly drawn) [Compound 81, (3S)-5,6-dichloro-1′-(1-methyl-5-oxopyrrolidine-3-carbonyl)spiro[indoline-3,3′-pyrrolidin]-2-one], less than 3 µM.
In turn, `Nc1ccc(C(=O)N2CC[C@]3(C2)C(=O)Nc2cc(Cl)c(Cl)cc23)cn1` [Compound 84, (S)-1′-(6-aminonicotinoyl)-5,6-dichlorospiro[indoline-3,3′-pyrrolidin]-2-one] gave a half-inhibitory concentration (IC50) of less than 1 µM.
In turn, `CNCC(=O)N1CC[C@]2(C1)C(=O)Nc1cc(Cl)c(Cl)cc12` [Compound 18, (S)-5,6-dichloro-1′-(methylglycyl)spiro[indoline-3,3′-pyrrolidin]-2-one] had an IC50 of less than 3 µM.
On to `Nc1cc(N2CC[C@]3(C2)C(=O)Nc2cc(Cl)c(Cl)cc23)ncn1` [Compound 148, (S)-1′-(6-aminopyrimidin-4-yl)-5,6-dichlorospiro[indoline-3,3′-pyrrolidin]-2-one], for which the IC50 was less than 3 µM.
In turn, `NC(=O)N1CC[C@]2(C1)C(=O)Nc1cc(Cl)c(Cl)cc12` (single isomer, unassigned) [Compound 154] registered a half-inhibitory concentration (IC50) of less than 1 µM.
For the compound `O=C([C@H]1[C@@H]2CN[C@H]1C2)N1CC[C@]2(C1)C(=O)Nc1cc(Cl)c(Cl)cc12` (single isomer, unassigned; isomer 1) [Compound 57], the IC50 was less than 3 µM.
Take `N[C@@H](CO)C(=O)N1CC[C@]2(C1)C(=O)Nc1cc(Cl)c(Cl)cc12` [Compound 36, (S)-1′-(L-Seryl)-5,6-dichlorospiro[indoline-3,3′-pyrrolidin]-2-one]: the IC50 is less than 1 µM.
As for `C[C@@H]1C[C@@]2(CN1C(=O)CO)C(=O)Nc1cc(Cl)c(Cl)cc12` (single isomer, unassigned; isomer 2) [Compound 124, 5,6-dichloro-1′-(2-hydroxyacetyl)-5′-methyl-1H-spiro[indole-3,3′-pyrrolidin]-2-one isomer 2], the figure is less than 10 µM; as for `NC(=O)N1CC[C@@]2(C1)C(=O)Nc1cc(Cl)c(Cl)cc12` (single isomer, unassigned) [Compound 155], less than 3 µM.
Turning to `O=C(N1CC[C@]2(C1)C(=O)Nc1cc(Cl)c(Cl)cc12)[C@@]1(F)CCCNC1` [Compound 48, (S)-5,6-dichloro-1′-((R)-3-fluoropiperidine-3-carbonyl)spiro[indoline-3,3′-pyrrolidin]-2-one], the half-inhibitory concentration (IC50) is less than 1 µM.
